One experiment addresses chick α7 nAChR (Gallus gallus, UniProt P22770). To be noted: cited from earlier work.
The target of the next experiment is human α7 nAChR (Homo sapiens, UniProt P36544). To be noted: cited from earlier work.
The target in experiment [1] is T1, human α7 wild type nAChR (Homo sapiens, UniProt P36544).
T1 construct: This created a new cDNA encoding a full length α7 subunit; expressed in transfected cells; host or cells: Xenopus laevis oocytes injected with receptor RNA or DNA
In words: Agonist concentration-response, two-electrode voltage-clamp in Xenopus laevis oocytes. It is filed as cell-based. To be noted: for Hill coefficient: Hill equation fit. In general terms: Two-electrode voltage clamp holds a large cell at a set potential and records current.

Experiment [2] addresses T2, human α7V274T nAChR (Homo sapiens, UniProt P36544, V274T).
T2 construct: This created a new cDNA encoding a full length α7 subunit; expressed in transfected cells
The experiment is described as above. It is filed as cell-based.

For experiment [3], the system named is chick α7V251T nAChR. To be noted: cited from earlier work.
Experiment [4] has as its target T1, human α7 wild type nAChR. In words: nAChR antagonists applied alone as agonists, current response in Xenopus oocytes. The experiment is classed as cell-based. To be noted: ligand μM: DHβE 10, d-TC 1, MLA 0.01, MEC 10, ATROP 2.
In experiment [5] the target is T2, human α7V274T nAChR. Described as above. It is filed as cell-based. The conditions noted are these: for % Activation, 10 μM ACh: compared to activation by 10 μM ACh, ligand μM: DHβE 10, d-TC 1, MLA 0.01, MEC 10, ATROP 2, mean ± s.e.m. (n).
The target of experiment [6] is T2, human α7V274T nAChR. The experiment is described as follows: Inhibition of the response to ACh in Xenopus oocytes. The experiment is classed as cell-based. The conditions noted are these: for inhibition of ACh response: MEC 10 μM against 1 μM ACh in three of the five oocytes inhibited by atropine; for % Inhibition, 1 μM ACh: inhibition of response to 1 μM ACh; for % Inhibition, 1 μM ACh / % Inhibition, 10 μM ACh: ligand μM: DHβE 10, d-TC 1, MLA 0.01, MEC 10, ATROP 2; for % Inhibition, 10 μM ACh: inhibition of response to 10 μM ACh.

The target in a further experiment is chick α7L247T nAChR (Gallus gallus, UniProt P22770, L270T). The conditions noted are these: cited from earlier work.
The target in experiment [7] is T1, human α7 wild type nAChR. The experiment is described as follows: Inhibition of the response to ACh in Xenopus oocytes. The experiment is classed as cell-based. To be noted: ligand μM: DHβE 10, d-TC 1, MLA 0.01, MEC 10, ATROP 2; for % Inhibition, % of 200 μM ACh: inhibition of response to 200 μM ACh; for % Inhibition, % of 10 mM ACh: inhibition of response to 10 mM ACh.

Experiment [8] concerns the target chick α7V251T nAChR (Gallus gallus, UniProt P22770, V274T). To be noted: 10 μM DHβE; cited from earlier work.

“Also recorded” adds a separate entry of the source. Where a name gives a salt, the structure may show the parent alone. Read-outs that look alike come from different tables or passages of the source.

Broadly, the EC50 is the concentration that produces a half-maximal response. The Hill coefficient is the slope factor of the fitted curve.

On to `C[N+]1(C)CCN(c2ccccc2)CC1` [DMPP, 1,1-dimethyl-4-phenylpiperazinium], for which the “agonist type” value is “very weak partial agonist” at chick α7 nAChR and “highly efficacious agonist” at human α7 nAChR.
In the case of `Cc1ncccc1OC[C@@H]1CCCN1` [ABT-089], the “agonist type” value at human α7 wild type nAChR [1] was “partial agonists”. This compound showed an EC50 at human α7V274T nAChR [2] of 28 ± 3 µM. Further, at human α7V274T nAChR [2] (responses normalized to the response to ACh), the efficacy was found to be 40±1%.
For `CC(=O)OCC[N+](C)(C)C` [ACh, Acetylocholine chloride], the “increase in ACh potency versus chick α7 wild type” value in the experiment with chick α7V251T nAChR [3] is given as 180 fold. In addition, the results for the Hill coefficient on human α7 wild type nAChR [1] and on human α7V274T nAChR [2] (Hill equation fit) were 0.94±0.09 and 1.8±0.2, respectively.
As to `COc1cc2c3cc1Oc1cc(ccc1O)C[C@@H]1c4c(cc(OC)c(O)c4Oc4ccc(cc4)C[C@@H]3N(C)CC2)CC[N+]1(C)C.Cl.O.O.O.O.O.[Cl-]` [d-TC, d-tubocurarine chloride], at human α7 wild type nAChR [4], the “% Activation, % of 10 mM ACh” value is −0.1 ± 0.1 (5) %. The “outward current amplitude, % of the maximal inward current response to ACh” value on human α7V274T nAChR [5] (MLA 10 nM, MEC 10 μM, d-TC 1 μM (d-TC in two of four oocytes)) is given as 3-5%. For the same compound, the “% Activation, 10 μM ACh” value at human α7V274T nAChR [5] is given as −2 ± 1 (4) %. Moreover, the “current response to ligand alone” value at human α7V274T nAChR [5] (d-TC 1 μM, atropine 2 μM) is given as “did not elicit agonist-like inward currents; also recorded: did not activate inward currents”. In addition, on human α7V274T nAChR [6], the “inhibition of ACh response” value is reported as “potent antagonist”; the “% Inhibition, 1 μM ACh” value was 99 ± 1 (4) %; the “% Inhibition, 10 μM ACh” value is 97 ± 3 (3) %. In addition, on chick α7L247T nAChR, the “activation of inward current” value is reported as “full response”. Moreover, on human α7 wild type nAChR [7], the “% Inhibition, % of 200 μM ACh” value was 28 ± 2 (4) % and the “% Inhibition, % of 10 mM ACh” value was 25 ± 3 (4) %.
Turning to `COc1ccc(/C=C2\CCCN=C2c2cccnc2)c(OC)c1` [GTS-21], the “agonist type” value at human α7 wild type nAChR [1] was “partial agonists”; at human α7V274T nAChR [2], “full agonist”. The compound also came in with a Hill coefficient on human α7V274T nAChR [2] (Hill equation fit) of 1.5±0.1. Besides, the concentration giving a half-maximal response (EC50) at human α7V274T nAChR [2] (peak amplitude normalized to ACh response, Hill equation fit, holding potential −60 mV) worked out at 4.3 ± 0.3 µM.
Consider `CN1CCCC1c1cccnc1` (single isomer, unassigned; (-)) [(−)-nicotine], for which the Hill coefficient on human α7 wild type nAChR [1] was 1.2±0.2; on human α7V274T nAChR [2] (Hill equation fit) it was 1.3±0.2.
For the compound `CNC1(C)C2CCC(C2)C1(C)C` (centres unmarked) [MEC, mecamylamine hydrochloride], at human α7 wild type nAChR [4], the “% Activation, % of 10 mM ACh” value was −0.3 ± 0.2 (3) %. Further, the “% Activation, 10 μM ACh” value on human α7V274T nAChR [5] was −1.9 ± 0.2 (4) %. Moreover, on human α7V274T nAChR [6], the “inhibition of ACh response” value is “completely blocked”; the “% Inhibition, 1 μM ACh” value is on record as 101 ± 1 (4) %; the “% Inhibition, 10 μM ACh” value is on record as 53 ± 2 (4) %. In addition, at human α7 wild type nAChR [7], the “% Inhibition, % of 200 μM ACh” value was 82 ± 1 (3) % and the “% Inhibition, % of 10 mM ACh” value is on record as 85 ± 3 (3) %.
Take `Br.CO[C@H]1CC=C2CCN3CCC4=C(CC(=O)OC4)[C@]23C1` [DHβE, Dihydro-β-erythroidine hydrobromide]: at human α7 wild type nAChR [4], the “% Activation, % of 10 mM ACh” value is recorded as −0.2 ± 0.1 (5) %. For the same compound, the “% Activation, 10 μM ACh” value on human α7V274T nAChR [5] was 4 ± 1 (4) %. Besides, on human α7V274T nAChR [6], the “% Inhibition, 1 μM ACh” value is on record as 69 ± 5 (4) % and the “% Inhibition, 10 μM ACh” value is listed as 52 ± 6 (4) %. In addition, at chick α7V251T nAChR [8], the “response as % of the ACh response” value is 66%. At human α7 wild type nAChR [7], the “% Inhibition, % of 200 μM ACh” value is on record as 41 ± 10 (4) % and the “% Inhibition, % of 10 mM ACh” value is 23 ± 2 (4) %.

Source of the values: patent publication US6683157B2, “Variant human α7 acetylcholine receptor subunit, and methods of production and use thereof” (priority 1996, dated 2004).
